The target in this test is T1, androgen receptor (AR) (Homo sapiens, UniProt P10275, T878A).
T1 construct: LNCaP cells expressing ARR2PB-FireflyLuc and CMV-RenillaLuc; endogenous in cells; host or cells: LNCaP cells carrying ARR2PB-FireflyLuc and CMV-RenillaLuc reporters
T1 sequence (P10275 1-920 T878A): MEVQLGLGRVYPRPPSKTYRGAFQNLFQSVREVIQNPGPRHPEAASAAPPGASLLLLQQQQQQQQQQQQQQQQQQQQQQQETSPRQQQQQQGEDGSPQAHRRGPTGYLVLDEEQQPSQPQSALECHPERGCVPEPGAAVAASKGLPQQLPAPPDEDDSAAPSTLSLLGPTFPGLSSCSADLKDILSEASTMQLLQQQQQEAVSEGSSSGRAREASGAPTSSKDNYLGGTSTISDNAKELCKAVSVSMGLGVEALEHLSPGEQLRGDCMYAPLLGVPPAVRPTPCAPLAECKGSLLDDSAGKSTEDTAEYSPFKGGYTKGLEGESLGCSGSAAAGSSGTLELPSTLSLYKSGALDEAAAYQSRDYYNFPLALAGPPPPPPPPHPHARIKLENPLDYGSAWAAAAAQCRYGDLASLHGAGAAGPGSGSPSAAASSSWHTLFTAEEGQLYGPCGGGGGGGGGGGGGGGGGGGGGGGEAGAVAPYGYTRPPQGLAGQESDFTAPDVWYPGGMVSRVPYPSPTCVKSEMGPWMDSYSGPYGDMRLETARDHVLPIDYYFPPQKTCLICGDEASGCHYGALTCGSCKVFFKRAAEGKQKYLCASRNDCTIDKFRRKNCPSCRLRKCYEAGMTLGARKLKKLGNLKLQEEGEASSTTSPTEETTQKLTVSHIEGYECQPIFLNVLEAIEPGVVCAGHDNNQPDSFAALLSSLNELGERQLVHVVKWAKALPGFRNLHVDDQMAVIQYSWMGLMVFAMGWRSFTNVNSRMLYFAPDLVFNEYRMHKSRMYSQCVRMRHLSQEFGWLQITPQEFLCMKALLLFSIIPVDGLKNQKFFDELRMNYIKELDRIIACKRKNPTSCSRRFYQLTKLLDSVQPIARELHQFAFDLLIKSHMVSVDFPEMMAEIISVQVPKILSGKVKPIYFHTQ
The test can be described thus: AR reporter assay in LNCaP cells expressing ARR2PB-FireflyLuc and CMV-RenillaLuc, antagonist mode (% remaining activity, IC50). The format is cell-based. To be noted: 48 h at 37° C., class symbols A-D, read-out: IC50. The essentials: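 LNCaP cells carrying ARR2PB-firefly and CMV-Renilla luciferase reporters were treated 48 h at 37 °C with compound plus 0.5 nM DHT. Signals were normalised between 0.5 nM DHT alone and 10 uM enzalutamide + DHT to give % remaining activity, and IC50 was obtained by non-linear regression.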
For orientation: Reporter assays use an easily measured gene product as a stand-in for the process of interest.
Usually IC50 stands for the midpoint of a concentration-inhibition curve. As for `CC(=O)N1C[C@@H](F)[C@H](Oc2ncc(-c3c[nH]c4c(C#N)cccc34)nc2C)C1` [Compound 272], the IC50 was 0.1 to 1 µM.

For `Cc1nc(-c2c[nH]c3c(C#N)cccc23)cnc1OCCO` [Compound 340], the IC50 is over 10 µM.

`N#Cc1cccc2c(-c3cnc(OC4CCNC4)cn3)c[nH]c12` (stereo not drawn) [Compound 222]: the IC50 was 1 to 10 µM.

Take `CC(=O)NC1CCCc2nc(-c3n[nH]c4ccccc34)ccc21` (stereo not drawn) [Compound 23]: the IC50 was over 10 µM.

For `Fc1ccc(-c2n[nH]c3cc(F)ccc23)nc1` [Compound 111], the IC50 lay within 0.1 to 1 µM.

As for `Cc1nc(-c2c[nH]c3c(C#N)cc(F)cc23)ccc1N` [Compound 130], the IC50 fell in the range of 0.1 to 1 µM.

`CC1(C)NC(=O)c2cnc(-c3c[nH]c4c(C#N)cccc34)cc21` [Compound 270]: the IC50 was over 10 µM.

For the compound `Cc1cc(-c2c[nH]c3c(C#N)cccc23)ncc1N` [Compound 138], the IC50 is 1 to 10 µM.

`Cc1cc2[nH]nc(-c3ccc4c(n3)CCCN4)c2cc1F` [Compound 44]: the IC50 was 0.1 to 1 µM.

As for `Cc1nc(-c2coc3c(C#N)cccc23)cnc1N` [Compound 310], the IC50 is over 10 µM.

On to `CC1NC(=O)c2ccc(-c3c[nH]c4c(C#N)cccc34)nc21` (stereo not drawn) [Compound 205], for which the IC50 fell in the range of 0.1 to 1 µM.

As to `Cc1nc(-c2c[nH]c3c(C#N)cccc23)ccc1NCC(=O)N(C)C` [Compound 197], the IC50 was over 10 µM.

Regarding `CC1(C)NC(=O)c2ncc(-c3c[nH]c4c(C#N)cccc34)cc21` [Compound 271], the IC50 is over 10 µM.

Regarding `Cc1nc(-c2c[nH]c3c(C#N)cccc23)cnc1O` [Compound 335], the IC50 lay within 1 to 10 µM.

On to `CNc1ccc(-c2n[nH]c3cc(F)c(F)cc23)nc1C` [Compound 94], for which the IC50 lay within 1 to 10 µM.

Regarding `COc1nc(-c2c[nH]c3c(C#N)cccc23)cnc1OC1CCN(C(C)=O)C1` (stereo not drawn) [Compound 278], the IC50 lay in the range of 1 to 10 µM.

As for `CC(=O)N1CCC(Oc2ncc(-c3c[nH]c4c(C(F)(F)F)cccc34)nc2C)C1` (stereo not drawn) [Compound 258], the IC50 was 0.1 to 1 µM.

Regarding `Nc1ccc(-c2n[nH]c3cc(F)c(F)cc23)nc1C(F)(F)F` [Compound 92], the IC50 lay within 0.1 to 1 µM.

Regarding `O=C(CO)N1CCCc2nc(-c3n[nH]c4cc(F)c(F)cc34)ccc21` [Compound 36], the IC50 was in the range of 1 to 10 µM.

In the case of `Cc1nc(-c2c[nH]c3c(C#N)cccc23)ccc1NCCN` [Compound 220], the IC50 is 0.1 to 1 µM.

With `Cc1nc(-c2c[nH]c3c(C#N)cccc23)cnc1NC1CCN(C)C1` (stereo not drawn) [Compound 182], the IC50 lay within 0.1 to 1 µM.

Take `Cc1nc(-c2c[nH]c3c(C4CC4)cccc23)ccc1N` [Compound 142]: the IC50 lay in the range of 1 to 10 µM.

Turning to `CCOC(=O)c1coc(-c2n[nH]c3c(C)cccc23)n1` [Compound 79], the IC50 is over 10 µM.

In the case of `Cc1ccc2c(-c3ccc(F)cc3)c[nH]c2n1` [Compound 203], the IC50 was in the range of 1 to 10 µM.

As to `Cc1nc(-c2c(C)[nH]c3c(C#N)cccc23)ccc1N` [Compound 155], the IC50 was over 10 µM.

`CC(=O)N1CCc2ccc(-c3n[nH]c4ccccc34)nc2C1` [Compound 21]: the IC50 is over 10 µM.

Take `Cc1nc(-c2c[nH]c3c(Cl)cccc23)cnc1OC1CCNC1` (stereo not drawn) [Compound 296]: the IC50 is under 0.1 µM.

For `CC1c2nc(-c3n[nH]c4cc(F)c(F)cc34)ccc2C(=O)N1C` (stereo not drawn) [Compound 104], the IC50 was 0.1 to 1 µM.

Regarding `CC(=O)N1CCC(Oc2ncc(-c3c[nH]c4c(Cl)cccc34)nc2C)C1` (stereo not drawn) [Compound 257], the IC50 is 0.1 to 1 µM.

For the compound `O=c1ccc2nc(-c3n[nH]c4ccccc34)ccc2[nH]1` [Compound 6], the IC50 lay within 1 to 10 µM.

In the case of `CC1NC(=O)c2ccc(-c3n[nH]c4cc(F)c(F)cc34)nc21` (stereo not drawn) [Compound 51], the IC50 was 0.1 to 1 µM.

For `Fc1cc2[nH]nc(-c3ccc4c(-c5nnco5)c(F)ccc4n3)c2cc1F` [Compound 33], the IC50 fell in the range of 0.1 to 1 µM.

`CCc1nc(-c2c[nH]c3c(Cl)cccc23)cnc1OC1CCNC1` (stereo not drawn) [Compound 253]: the IC50 was over 10 µM.

Turning to `Cc1nc(-c2c[nH]c3c(C#N)cc(Cl)cc23)ccc1N` [Compound 153], the IC50 is 1 to 10 µM.

For the compound `Cc1nc(-c2c[nH]c3cc(F)c(F)cc23)ccc1N` [Compound 124], the half-maximal inhibitory concentration (IC50) was in the range of 1 to 10 µM.

As to `CC1(C)c2nc(-c3c[nH]c4c(C#N)cccc34)ccc2C(=O)N1C1CCOC1` (stereo not drawn) [Compound 158], the IC50 was over 10 µM.

For the compound `Cc1nc(-c2c[nH]c3c(C#N)cccc23)ccc1NC(C)C(=O)N(C)C` (stereo not drawn) [Compound 191], the IC50 lay in the range of 1 to 10 µM.

Regarding `Cc1nc(-c2c[nH]c3c(C#N)cccc23)cnc1OC1CCNC1(C)C` (stereo not drawn) [Compound 283], the IC50 is over 10 µM.

For `CC1(C)NC(=O)c2ccc(-c3c[nH]c4c(C#N)c(F)ccc34)nc21` [Compound 184], the IC50 was 0.1 to 1 µM.

Consider `Cc1nc(-c2c[nH]c3c(=O)n(C)ccc23)ccc1OC1CCNC1` (stereo not drawn) [Compound 300], for which the IC50 is over 10 µM.

On to `Cc1ccc2c(-c3ccc(N)c(C)n3)c[nH]c2c1C#N` [Compound 150], for which the IC50 is 1 to 10 µM.

With `N#Cc1cccc2c(-c3cnc(OC(F)F)c(N)c3)c[nH]c12` [Compound 171], the IC50 was under 0.1 µM.

As for `COCCOc1cccc(-c2c[nH]c3c(C#N)cccc23)n1` [Compound 167], the IC50 was 1 to 10 µM.

In the case of `N#Cc1cccc2c(-c3cnc(OC4CCNC4)c(C(F)(F)F)n3)c[nH]c12` (stereo not drawn) [Compound 245], the IC50 fell in the range of 1 to 10 µM.

As for `CCOc1nc(-c2c[nH]c3c(C#N)cccc23)cnc1NC1CCNC1` (stereo not drawn) [Compound 251], the IC50 lay in the range of 1 to 10 µM.

As for `Cc1nc(-c2c[nH]c3c(C#N)cccc23)cnc1OCC(C)(C)N` [Compound 286], the IC50 lay within 1 to 10 µM.

`CC(C)(O)COc1ncc(-c2c[nH]c3c(C#N)cccc23)nc1C1CC1` [Compound 342]: the IC50 is over 10 µM.

On to `Cc1nc(-c2n[nH]c3cc(F)c(F)cc23)ccc1N(C)C` [Compound 98], for which the IC50 lay within 1 to 10 µM.

`NCc1cccc2c(-c3ccc4ncccc4n3)n[nH]c12` [Compound 86]: the IC50 lay in the range of 0.1 to 1 µM.

For the compound `Cc1nc(-c2c[nH]c3c(C#N)cccc23)cnc1N1CCC(N)C1` (stereo not drawn) [Compound 227], the IC50 was over 10 µM.

As for `O=C1NCc2nc(-c3n[nH]c4ccccc34)ccc21` [Compound 114], the IC50 lay in the range of 1 to 10 µM.

For `CC1(C)NC(=O)c2ccc(-c3c[nH]c4c(Cl)cccc34)nc21` [Compound 218], the IC50 is 0.1 to 1 µM.

In the case of `CC(=O)N1CC(Oc2ncc(-c3c[nH]c4c(C#N)cccc34)nc2C)C(F)(F)C1` (stereo not drawn) [Compound 323], the IC50 is 0.1 to 1 µM.

On to `CN1CCOc2ccc(-c3n[nH]c4cc(F)c(F)cc34)nc21` [Compound 75], for which the IC50 was in the range of 1 to 10 µM.

`NCc1cc(F)cc2c(-c3ccc4ncccc4n3)c[nH]c12` [Compound 154]: the IC50 was in the range of 0.1 to 1 µM.

As to `CN(C)c1ccc2c(-c3ccc4ccccc4n3)n[nH]c2c1` [Compound 4], the IC50 is over 10 µM.

As for `COc1cncc(-c2c[nH]c3c(C#N)cccc23)n1` [Compound 215], the IC50 was under 0.1 µM.

Take `Cc1nc(-c2csc3cc(F)ccc23)cnc1OCC(C)(C)O` [Compound 336]: the IC50 is 0.1 to 1 µM.

`Fc1cc2[nH]nc(-c3ccc4c(n3)OCCN4)c2cc1F` [Compound 69]: the IC50 was over 10 µM.

On to `CC(=O)N1CCc2nc(-c3n[nH]c4cc(F)c(F)cc34)ccc2C1` [Compound 31], for which the IC50 is over 10 µM.

Take `Cc1nc(-c2n[nH]c3cc(F)c(F)cc23)ccc1OC1CCNC1` (stereo not drawn) [Compound 255]: the IC50 was 1 to 10 µM.

Turning to `COc1nc(-c2n[nH]c3cc(F)c(F)cc23)ccc1N` [Compound 91], the IC50 was 0.1 to 1 µM.

On to `N#Cc1cccc2c(-c3ccc(F)cn3)c[nH]c12` [Compound 127], for which the IC50 is under 0.1 µM.

In the case of `c1ccc2nc(-c3n[nH]c4cc(N5CCOCC5)ccc34)ccc2c1` [Compound 2], the IC50 is over 10 µM.

As for `Cc1nc(-c2c[nH]c3c(C#N)cccc23)cnc1OC[C@H]1[C@@H]2CNC[C@@H]21` [Compound 246], the IC50 lay in the range of 0.1 to 1 µM.

On to `CC(=O)N1CCC(Oc2ncc(-c3c[nH]c4c(C#N)cccc34)nc2C(F)(F)F)C1` (stereo not drawn) [Compound 269], for which the IC50 is 0.1 to 1 µM.

As for `CN1Cc2nc(-c3n[nH]c4cc(F)c(F)cc34)ccc2C1=O` [Compound 42], the IC50 lay within 1 to 10 µM.

Take `Fc1cc2[nH]nc(-c3ccc4c(n3)CCCN4)c2cc1F` [Compound 11]: the IC50 is 0.1 to 1 µM.

For the compound `CC(C)(O)c1ccc(-c2n[nH]c3cc(F)c(F)cc23)nc1` [Compound 72], the IC50 was over 10 µM.

The values above are taken from patent US12448368B2, “Indole compounds as androgen receptor modulators” (NIDO BIOSCIENCES, INC., priority 2020, dated 2025).
